The text below walks through data of patent US20210401867A1, “PHOTOSENSITIZERS AND METHOD OF TREATING CANCER USING THE SAME” (Cheng-Wen Wu, priority 2018, published 2021).

In one experiment the test system is FaDu cells. Put plainly: comet assay for DNA damage in FaDu cells. It counts as cell-based, human. The following applies: 1 μM BrdU with 1 Gy of 14 keV NR, versus BrdU-RS2000 or RS2000. The procedure: Referring to FIGS. 22A and 22B, comet assays for evaluating DNA damages induced by BrdU, RS2000, BrdU with RS2000, NR, and NR with BrdU are provided in accordance with an exemplary embodiment of the present disclosure. Comet assays are commonly used to measure DNA single-strand breaks […] and double-strand breaks (DSBs). FaDu cells (10^4 cells/10 μl of PBS) are mixed with 75 μl of 0.75% low-melting agarose. The mixture is then immediately embedded onto a glass slide pre-coated with 2 layers of 1% agarose, and spread evenly with a coverslip. The mixture on the glass slide is solidified on ice for 5 minutes. 2 additional layers of 1% agarose are then coated on the cell layer. The cell is then soaked with cell lysis buffer (10 mM Tris, 2.5 M NaCl, 100 mM Na2-EDTA, and 1% Triton X-100, pH 10.0) at 4° C. for 1 hour. The slide is then placed horizontally in an electrophoretic apparatus with alkaline electrophoretic buffer ([…] and 1 mM Na2-EDTA, pH >12.0) for 60 minutes, and then electrophoresis is conducted in the apparatus for 30 minutes at 25 V and 300 mA. After the electrophoresis has ended, the slide is soaked with neutralization buffer (0.4 M Tris, pH 7.4) for 10 minutes. The cells on the slide are stained with propidium iodide (PI) of 20 μg/ml and subjected to microscopic examination. […] FIG. 22B is a quantified result of FIG. 22A. […]

Another experiment deals with FaDu-RFP+ cells. Put plainly: in vivo IdU incorporation rate in FaDu-RFP+ solid tumors (flow cytometry). Set-up: species or system mouse. The text has this: An injection concentration of IdU is selected based on a flow cytometry analysis on the incorporation rate of IdU in tumor cells. Referring to FIG. 13A, a schematic diagram of an in vivo animal experiment for determining an injection concentration of IdU is provided in accordance with an exemplary embodiment of the present disclosure. FaDu cells are marked with RFP (red fluorescent protein) and […]. The malignant solid tumors formed by FaDu-RFP+ cells on the tumorigenic mouse are injected with different concentrations of IdU: 100 μg, 50 μg, 20 μg, 10 μg, 5 μg, or 2 μg per 100 μl PBS. 4 hours later, the tumorigenic mouse are sacrificed and the solid tumors are isolated to single cells. The single cells from the solid tumors are then subjected to antibody staining and flow cytometry analyses. Referring to FIG. 13B, a flow cytometry result of the experiments described by FIG. 13A, is provided in accordance with an exemplary embodiment of the present disclosure. The horizontal axis represents the RFP signals, and the vertical axis represents the GFP signals. […] Only 6.232% of FaDu cells are detected with GFP in the left panel of FIG. 13B. The right panel of FIG. 13B are FaDu cells treated with 50 μg of IdU, an area 132 is FaDu cells detected with GFP signals. 19.088% of FaDu cells are detected with GFP signals in the right panel of FIG. 13B. […]
In general terms: In flow cytometry, cells or beads pass a laser one at a time.

Another experiment relates to γH2AX. Put plainly: Western blotting for pATM, γH2AX and c-CASP3 in FaDu cells. It counts as cell-based, human. The note with it: 10 μM IdU and 2 Gy of NR, 30 minutes after irradiation, among all treatments. The protocol:
To investigate the mechanism associated with the combination of IdU and NR in the Auger molecular therapy, molecular markers involving DNA damage and apoptosis are analyzed. In vitro FaDu cells are treated with 10 μM of IdU, and irradiated by 2Gy of NR or RS2000. 30 minutes after above treatments, FaDu cells are subjected to Western blot to determine the expression of several proteins relevant to DNA damage and apoptosis: phosphor-ATM (pATM) is a protein kinase activated by DNA double-strand-breaks (DSBs), and it phosphorylates several key factors to initiate DNA damage checkpoint and repair; γH2AX is one of the targets of pATM, and it forms the foundation of chromatin-based signaling cascades at DSBs sites, and it is widely considered as a highly specific and sensitive marker for quantitative evaluation of DSB; and CASP3 is a marker for increased apoptosis, wherein c-CASP3 is a cleaved CASP3 formed when apoptotic signals are present in the cell. The subcutaneous tumor also subjected to Western blot 3 days after the above treatments.
FIGS. 17A and 17B are results of Western blotting for protein expression levels of pATM, γH2AX, and c-CASP3, in accordance with exemplary embodiments of the present disclosure. FIG. 17A is the result at 30 minutes after irradiation, and FIG. 17B is the result at 3 days after irradiation, wherein β-ACTIN are served as an internal control in both figures. […]
On the technique in general: Immunoblotting shows a protein as a band on a membrane.

Take `O=c1[nH]c(=O)n([C@H]2C[C@H](O)[C@@H](CO)O2)cc1Br` [BrdU, bromodeoxyuridine]: the “relative DNA tail movement (comet assay)” value in the experiment with FaDu cells is listed as “largest relative DNA tail movements”.
Consider `O=c1[nH]c(=O)n([C@H]2C[C@H](O)[C@@H](CO)O2)cc1I` [IdU, iododeoxyuridine], for which, in the experiment on FaDu-RFP+ cells (50 μg IdU/100 μl PBS versus 100, 20, 10, 5, 2 μg), the “IdU incorporation rate among injected concentrations” value is “best IdU incorporation rate”. Besides, the “FaDu cells detected with GFP signals (IdU incorporation)” value with FaDu-RFP+ cells (50 μg of IdU injected into tumor, 4 hours) stood at 19.088%. Besides, the “γH2AX expression (Western blot)” value in the experiment on γH2AX is on record as “most γH2AX expression”.
